Measured values: ChEMBL document CHEMBL3046397, “Synthesis and Insecticidal Activity of 4-1, 2, 4-Thiadiazolin-3-ones” (J Pestic Sci, 1994)

Legend:
Format in all cases: functional
[1] = tested on: Spodoptera litura; assay: Ovicidal activity against […] Spodoptera litura in paraffin paper assessed as egg mortality at 0.5 ppm at 25 degC, 65% RH measured after 7 days by egg dipping method; conditions: 168 h
[2] = tested on: Spodoptera litura; assay: Insecticidal activity against third-instar larvae of Spodoptera litura in compound treated sweet potato leaves assessed as mortality at 0.1 ppm at 25 degC, 65% RH measured after 5 days by leaf dipping method; conditions: foliar, 120 h
[3] = tested on: Mythimna separata; assay: Insecticidal activity against third-instar larvae Mythimna separata (Oriental armyworm) in compound treated maize leaves assessed as mortality at 0.1 ppm at 25 degC, 65% RH measured after 5 days by leaf dipping method; conditions: foliar, 120 h
[4] = tested on: Spodoptera litura; assay: Ovicidal activity against […] Spodoptera litura in paraffin paper assessed as egg mortality at 8 to 16 ppm at 25 degC, 65% RH measured after 7 days by egg dipping method
[5] = tested on: Spodoptera litura; assay: Insecticidal activity against third-instar larvae of Spodoptera litura in compound treated sweet potato leaves assessed as mortality at 0.25 to 1 ppm at 25 degC, 65% RH measured after 5 days by leaf dipping method
[6] = tested on: Spodoptera litura; assay: Ovicidal activity against […] Spodoptera litura in paraffin paper assessed as egg mortality at 31 to 125 ppm at 25 degC, 65% RH measured after 7 days by egg dipping method
[7] = tested on: Spodoptera litura; assay: Ovicidal activity against […] Spodoptera litura in paraffin paper assessed as egg mortality at 125 ppm at 25 degC, 65% RH measured after 7 days by egg dipping method; conditions: 168 h
[8] = tested on: Spodoptera litura; assay: Ovicidal activity against […] Spodoptera litura in paraffin paper assessed as egg mortality at 1 to 4 ppm at 25 degC, 65% RH measured after 7 days by egg dipping method
[9] = tested on: Spodoptera litura; assay: Insecticidal activity against third-instar larvae of Spodoptera litura in compound treated sweet potato leaves assessed as mortality at 2 to 4 ppm at 25 degC, 65% RH measured after 5 days by leaf dipping method
[10] = tested on: Mythimna separata; assay: Insecticidal activity against third-instar larvae Mythimna separata (Oriental armyworm) in compound treated maize leaves assessed as mortality at 0.25 to 1 ppm at 25 degC, 65% RH measured after 5 days by leaf dipping method
[11] = tested on: Spodoptera litura; assay: Insecticidal activity against third-instar larvae of Spodoptera litura in compound treated sweet potato leaves assessed as mortality at 31 ppm at 25 degC, 65% RH measured after 5 days by leaf dipping method; conditions: foliar, 120 h
[12] = tested on: Mythimna separata; assay: Insecticidal activity against third-instar larvae Mythimna separata (Oriental armyworm) in compound treated maize leaves assessed as mortality at 2 to 4 ppm at 25 degC, 65% RH measured after 5 days by leaf dipping method
[13] = tested on: Mythimna separata; assay: Insecticidal activity against third-instar larvae Mythimna separata (Oriental armyworm) in compound treated maize leaves assessed as mortality at 8 to 31 ppm at 25 degC, 65% RH measured after 5 days by leaf dipping method
[14] = tested on: Spodoptera litura; assay: Insecticidal activity against third-instar larvae of Spodoptera litura in compound treated sweet potato leaves assessed as mortality at 8 to 31 ppm at 25 degC, 65% RH measured after 5 days by leaf dipping method
[15] = tested on: Mythimna separata; assay: Insecticidal activity against third-instar larvae Mythimna separata (Oriental armyworm) in compound treated maize leaves assessed as mortality at 31 ppm at 25 degC, 65% RH measured after 5 days by leaf dipping method; conditions: foliar, 120 h

Structure (SMILES)	mortality at 0.1 ppm [3]	mortality [4]	mortality at 125 ppm [7]	mortality at 31 ppm [11]	further results
O=C(NC(=O)c1c(F)cccc1F)Nc1cc(F)c(OC(F)(F)F)cc1F	> 90%	–	–	–	mortality at 0.5 ppm [1]: > 90%; mortality at 0.1 ppm [2]: > 90%
O=c1nc(-c2c(F)cccc2F)sn1-c1cc(F)c(OC(F)(F)F)cc1F	> 90%	>90%	–	–	mortality [5]: >90%
O=c1nc(-c2c(F)cccc2F)sn1-c1ccc(OC(F)(F)F)c(F)c1Cl	> 90%	–	–	–	mortality [6]: >90%; mortality at 0.1 ppm [2]: > 90%
O=c1nc(-c2c(F)cccc2F)sn1-c1ccc(OC(F)(F)F)c(Cl)c1F	> 90%	–	< 90%	–	mortality [5]: >90%
O=c1nc(-c2c(F)cccc2F)sn1-c1cc(Cl)c(OC(F)(F)F)cc1F	> 90%	–	–	–	mortality [8]: >90%; mortality [9]: >90%
O=c1nc(-c2c(F)cccc2F)sn1-c1cc(F)c(OC(F)(F)F)cc1Cl	–	>90%	–	–	mortality at 0.1 ppm [2]: > 90%; mortality [10]: >90%
Cc1c(OC(F)(F)F)ccc(-n2sc(-c3c(F)cccc3F)nc2=O)c1F	> 90%	>90%	–	–	mortality [5]: >90%
O=c1nc(-c2c(F)cccc2F)on1-c1ccc(Cl)cc1	–	–	< 90%	–	mortality [10]: >90%
O=c1nc(-c2c(Cl)cccc2Cl)on1-c1ccc(Cl)cc1	–	–	< 90%	< 90%	mortality [12]: >90%
O=c1nc(-c2c(F)cccc2F)on1-c1ccc(OC(F)(F)F)cc1	–	>90%	–	< 90%	mortality [12]: >90%
O=c1nc(-c2ccccc2Cl)on1-c1ccc(OC(F)(F)F)cc1	–	–	< 90%	< 90%	mortality [10]: >90%
Cc1ccccc1-c1nc(=O)n(-c2ccc(OC(F)(F)F)cc2)o1	–	>90%	–	< 90%	mortality [13]: >90%
O=c1nc(-c2c(F)cccc2F)on1-c1ccc(C(F)(F)F)cc1	–	–	–	< 90%	mortality [10]: >90%
O=c1nc(-c2c(F)cccc2F)on1-c1ccc(OC(F)(F)F)c(Cl)c1	> 90%	–	< 90%	–	mortality [9]: >90%
O=C(NC(=O)c1c(F)cccc1F)Nc1ccc(OC(F)(F)F)c(F)c1F	> 90%	–	–	–	mortality at 0.5 ppm [1]: > 90%; mortality at 0.1 ppm [2]: > 90%
O=c1nc(-c2ccccc2Br)sn1-c1ccc(OC(F)(F)F)cc1	–	>90%	–	–	mortality [14]: >90%; mortality [13]: >90%
O=c1nc(-c2ccccc2C(F)(F)F)sn1-c1ccc(OC(F)(F)F)cc1	–	–	< 90%	< 90%	mortality at 31 ppm [15]: < 90%
O=c1nc(-c2c(Cl)cccc2Cl)sn1-c1ccc(OC(F)(F)F)cc1	–	–	< 90%	< 90%	mortality [12]: >90%
O=c1nc(-c2c(F)cccc2Cl)sn1-c1ccc(OC(F)(F)F)cc1	–	>90%	–	–	mortality [10]: >90%
O=c1nc(-c2c(F)cccc2F)sn1-c1cc(Cl)c(F)c(Cl)c1F	–	>90%	–	< 90%	mortality at 31 ppm [15]: < 90%
O=c1nc(-c2c(F)cccc2F)sn1-c1cc(Cl)c(Oc2ncc(C(F)(F)F)cc2Cl)c(Cl)c1	–	–	< 90%	< 90%	mortality [10]: >90%

Structure (SMILES)	mortality at 0.1 ppm [3]	mortality [4]	mortality at 125 ppm [7]	mortality at 31 ppm [11]	further results
O=c1nc(-c2c(F)cccc2F)sn1-c1ccc(OC(F)(F)F)cc1Cl	–	–	–	–	mortality [8]: >90%; mortality [9]: >90%; mortality [13]: >90%
O=c1nc(-c2c(F)cccc2F)sn1-c1ccc(OC(F)(F)F)c(Cl)c1	> 90%	–	–	< 90%	mortality [6]: >90%
Cc1cc(OC(F)(F)F)ccc1-n1sc(-c2c(F)cccc2F)nc1=O	> 90%	–	–	–	mortality [6]: >90%; mortality [14]: >90%
Cc1cc(-n2sc(-c3c(F)cccc3F)nc2=O)ccc1OC(F)(F)F	> 90%	–	–	–	mortality [6]: >90%; mortality [9]: >90%
O=c1nc(-c2c(F)cccc2F)sn1-c1ccc(OC(F)(F)F)cc1F	> 90%	>90%	–	–	mortality [5]: >90%
O=c1nc(-c2c(F)cccc2F)sn1-c1ccc(OC(F)(F)F)c(F)c1	–	>90%	–	–	mortality [9]: >90%; mortality [10]: >90%
O=c1nc(-c2c(F)cccc2F)sn1-c1ccc(OC(F)(F)F)c(Cl)c1Cl	–	–	< 90%	–	mortality [5]: >90%; mortality [10]: >90%
O=c1nc(-c2c(F)cccc2F)sn1-c1cc(Cl)c(OC(F)(F)F)cc1Cl	–	–	< 90%	–	mortality [9]: >90%; mortality [10]: >90%
Cc1c(OC(F)(F)F)ccc(-n2sc(-c3c(F)cccc3F)nc2=O)c1C	> 90%	–	< 90%	–	mortality [5]: >90%
Cc1cc(-n2sc(-c3c(F)cccc3F)nc2=O)c(C)cc1OC(F)(F)F	> 90%	–	< 90%	–	mortality [9]: >90%
Cc1cc(-n2sc(-c3c(F)cccc3F)nc2=O)cc(C)c1OC(F)(F)F	–	–	< 90%	–	mortality [9]: >90%; mortality [10]: >90%
O=c1nc(-c2c(F)cccc2F)sn1-c1ccc(OC(F)(F)F)c(F)c1F	> 90%	>90%	–	–	mortality at 0.1 ppm [2]: > 90%
O=c1nc(-c2c(Cl)cccc2Cl)sn1-c1ccc(Cl)cc1	–	–	< 90%	< 90%	mortality [13]: >90%
O=c1nc(-c2ccccc2Cl)sn1-c1ccc(Cl)cc1	–	–	< 90%	–	mortality at 31 ppm [15]: < 90%
O=c1nc(-c2c(F)cccc2F)sn1-c1ccc(Cl)cc1	–	–	< 90%	< 90%	mortality [10]: >90%
O=c1nc(-c2c(F)cccc2F)sn1-c1ccc(C(F)(F)F)cc1	> 90%	>90%	–	< 90%	–
O=c1nc(-c2c(F)cccc2F)sn1-c1ccc(OC(F)(F)F)cc1	> 90%	>90%	–	–	mortality [14]: >90%
Cc1ccccc1-c1nc(=O)n(-c2ccc(OC(F)(F)F)cc2)s1	–	>90%	–	< 90%	mortality [12]: >90%
O=c1nc(-c2ccccc2F)sn1-c1ccc(OC(F)(F)F)cc1	–	>90%	–	–	mortality [14]: >90%; mortality [12]: >90%
O=C(NC(=O)c1c(F)cccc1F)Nc1ccc(Cl)cc1 [DIFLUBENZURON]	> 90%	–	–	< 90%	mortality [8]: >90%
O=C(NC(=O)c1ccccc1Cl)Nc1ccc(OC(F)(F)F)cc1 [TRIFLUMURON]	> 90%	–	–	–	mortality at 0.5 ppm [1]: > 90%; mortality [14]: >90%
